Measurements published in US20030158529A1 (priority 2001, published 2003).
Where two headings read alike, the source gives them in different places.

Key:
Format in all cases: cell-based, Staphylococcus aureus
[1] = tested on: S. aureus (MN8)
[2] = tested on: S. aureus FRI-1169
[3] = tested on: S. aureus FRI-1187

Compound | CFU/mL [1] | ELISA: TSST-1 ng/OD unit [1] | Optical Density 600 nm [1] | Reduction of Toxin (%) [1] | ELISA: TSST-1 ng/OD unit ([1]; S. aureus MN8, 2 μg/mL test compound, 24 hours) | Optical Density 600 nm ([1]; S. aureus MN8, 2 μg/mL test compound, 24 hours, 35° C.) | ELISA: TSST-1 ng/OD unit ([1]; S. aureus MN8, 0.01 μg/mL test compound, 24 hours) | Optical Density 600 nm ([1]; S. aureus MN8, 0.01 μg/mL test compound, 24 hours, 35° C.) | CFU/mL [2] | Optical Density 600 nm [2] | ELISA: TSST-1 ng/OD unit ([2]; S. aureus FRI-1169, 0.5 μg/mL) | CFU/mL [3] | Optical Density 600 nm [3] | ELISA: TSST-1 ng/OD unit ([3]; S. aureus FRI-1187, 0.5 ug/mL)
Oc1ccc(Cc2ccccc2)cc1 [4-Hydroxydiphenylmethane, 4-hydroxydiphenyl methane] | 1.1E+08 CFU/mL | 785 ng/OD unit | 0.581 |  |  |  |  |  |  |  |  |  |  | 
Oc1c(Cl)cc(Cl)c(Cl)c1Cc1c(O)c(Cl)cc(Cl)c1Cl [Hexachlorophene, hexachlorophene] | 3.7E+08 CFU/mL |  |  | 68% | 330 ng/OD unit | 0.350 |  |  |  |  |  |  |  | 
Oc1cc(Cl)ccc1Oc1ccc(Cl)cc1Cl [Triclosan, triclosan] | 1.0E+08 CFU/mL |  |  | 88% |  |  | 129 ng/OD unit | 0.271 | 1.50E+09 CFU/mL | 0.625 | 40 ng/OD unit | 1.56E+09 CFU/mL | 0.156 | 95 ng/OD unit
